Test results as given in the supplement of paper PMC10307832.

What was measured:
Experiment in all cases: relative viability (nuclei count vs DMSO), 5 days (fraction); higher = more cells survive
Pictilisib + Phenformin = compound: CS(=O)(=O)N1CCN(Cc2cc3nc(-c4cccc5[nH]ncc45)nc(N4CCOCC4)c3s2)CC1 [Pictilisib] + N=C(N)NC(=N)NCCc1ccccc1 [Phenformin] (partner 250 µM)
How it was run: (§1)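 Cells from lung cancer lines were seeded into 1536-well plates and, one day later, dosed by pin tool. Treatments were either a single drug or a fixed dose of an anchor drug with five library-drug doses (not always all listed) in √10 steps. After 5 days, nuclei were stained in a one-step fixation (final 0.05% Triton X-100, 1% formaldehyde, 1 ug/ml Hoechst) and counted on 4× images, and relative viability is the treated-to-vehicle nuclei ratio, as the median of duplicate plates.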

Pictilisib + Pemetrexed = compound: CS(=O)(=O)N1CCN(Cc2cc3nc(-c4cccc5[nH]ncc45)nc(N4CCOCC4)c3s2)CC1 [Pictilisib] + Nc1nc2[nH]cc(CCc3ccc(C(=O)N[C@@H](CCC(=O)O)C(=O)O)cc3)c2c(=O)[nH]1 [Pemetrexed] (partner 0.2 µM)
How it was run: as §1

Pictilisib + Palbociclib = compound: CS(=O)(=O)N1CCN(Cc2cc3nc(-c4cccc5[nH]ncc45)nc(N4CCOCC4)c3s2)CC1 [Pictilisib] + CC(=O)c1c(C)c2cnc(Nc3ccc(N4CCNCC4)cn3)nc2n(C2CCCC2)c1=O [Palbociclib] (partner 0.5 µM)
How it was run: as §1

MK-2206 + Crizotinib = compound: NC1(c2ccc(-c3nc4ccn5c(=O)[nH]nc5c4cc3-c3ccccc3)cc2)CCC1 [MK-2206] + C[C@@H](Oc1cc(-c2cnn(C3CCNCC3)c2)cnc1N)c1c(Cl)ccc(F)c1Cl [Crizotinib] (partner 1 µM)
How it was run: as §1

Pictilisib + Olaparib = compound: CS(=O)(=O)N1CCN(Cc2cc3nc(-c4cccc5[nH]ncc45)nc(N4CCOCC4)c3s2)CC1 [Pictilisib] + O=C(c1cc(Cc2n[nH]c(=O)c3ccccc23)ccc1F)N1CCN(C(=O)C2CC2)CC1 [Olaparib] (partner 8 µM)
How it was run: as §1

Cell Line | relative viability (Pictilisib + Phenformin; first compound 0.02 µM) | relative viability (Pictilisib + Phenformin; first compound 0.06325 µM) | relative viability (Pictilisib + Phenformin; first compound 0.6325 µM) | relative viability (Pictilisib + Phenformin; first compound 2 µM) | relative viability (Pictilisib + Pemetrexed; first compound 0.02 µM) | relative viability (Pictilisib + Pemetrexed; first compound 0.06325 µM) | relative viability (Pictilisib + Pemetrexed; first compound 0.6325 µM) | relative viability (Pictilisib + Pemetrexed; first compound 2 µM) | relative viability (Pictilisib + Palbociclib; first compound 0.02 µM) | relative viability (Pictilisib + Palbociclib; first compound 0.06325 µM) | relative viability (Pictilisib + Palbociclib; first compound 0.6325 µM) | relative viability (Pictilisib + Palbociclib; first compound 2 µM) | relative viability (MK-2206 + Crizotinib; first compound 0.01 µM) | relative viability (MK-2206 + Crizotinib; first compound 0.03162 µM) | relative viability (MK-2206 + Crizotinib; first compound 0.3162 µM) | relative viability (MK-2206 + Crizotinib; first compound 1 µM) | relative viability (Pictilisib + Olaparib; first compound 0.02 µM) | relative viability (Pictilisib + Olaparib; first compound 0.06325 µM) | relative viability (Pictilisib + Olaparib; first compound 0.6325 µM) | relative viability (Pictilisib + Olaparib; first compound 2 µM)
NCI-H441 | 0.822 | 0.789 | 0.601 | 0.337 | 0.279 | 0.276 | 0.256 | 0.202 | 0.216 | 0.192 | 0.152 | 0.148 | 0.798 | 0.639 | 0.612 | 0.643 | 0.653 | 0.606 | 0.493 | 0.346
NCI-H520 | 0.613 | 0.516 | 0.19 | 0.2 | 0.613 | 0.624 | 0.268 | 0.148 | 0.217 | 0.234 | 0.144 | 0.125 | 0.833 | 0.741 | 0.42 | 0.421 | 0.387 | 0.323 | 0.186 | 0.118
CAL-12T | 0.612 | 0.578 | 0.467 | 0.239 | 1.31 | 1.4 | 1.18 | 1.04 | 0.385 | 0.604 | 0.457 | 0.167 | 0.546 | 0.688 | 0.488 | 0.491 | 0.761 | 0.785 | 0.754 | 0.523
HCC-827 | 0.423 | 0.419 | 0.376 | 0.306 | 0.265 | 0.28 | 0.196 | 0.221 | 0.517 | 0.415 | 0.234 | 0.188 | 0.966 | 0.874 | 0.977 | 0.98 | 0.795 | 0.512 | 0.433 | 0.284
LC-2-ad | 0.593 | 0.636 | 0.464 | 0.323 | 0.277 | 0.278 | 0.272 | 0.23 | 0.486 | 0.532 | 0.298 | 0.265 | 0.494 | 0.453 | 0.435 | 0.42 | 0.745 | 0.758 | 0.788 | 0.656
NCI-H2170 | 0.394 | 0.444 | 0.424 | 0.365 | 0.268 | 0.273 | 0.249 | 0.228 | 0.351 | 0.375 | 0.266 | 0.165 | 1.17 | 1.41 | 1.21 | 1.18 | 0.608 | 0.508 | 0.562 | 0.33
SW 1573 | 0.387 | 0.318 | 0.215 | 0.166 | 0.845 | 0.91 | 0.52 | 0.424 | 0.417 | 0.345 | 0.207 | 0.191 | 0.814 | 0.762 | 0.493 | 0.748 | 0.512 | 0.542 | 0.377 | 0.22
SK-MES-1 | 0.692 | 0.686 | 0.621 | 0.558 | 0.941 | 0.948 | 0.879 | 0.391 | 0.326 | 0.302 | 0.346 | 0.262 | 0.953 | 1.02 | 1.04 | 0.816 | 0.881 | 0.654 | 0.474 | 0.296
NCI-H1648 |  |  |  |  | 0.72 | 0.802 | 0.614 | 0.41 | 0.248 | 0.236 | 0.256 | 0.216 |  |  |  |  | 0.701 | 0.561 | 0.355 | 0.264
NCI-H1793 | 0.387 | 0.38 | 0.221 | 0.203 | 0.828 | 0.754 | 0.522 | 0.276 | 0.25 | 0.234 | 0.199 | 0.183 |  |  |  |  | 0.812 | 0.613 | 0.331 | 0.167
NCI-H1299 |  |  |  |  |  |  |  |  |  |  |  |  | 0.957 | 0.963 | 1.06 | 0.94 | 0.996 | 1.01 | 1.03 | 0.858
LCLC-97TM1 | 0.435 | 0.415 | 0.398 | 0.194 | 0.155 | 0.169 | 0.169 | 0.147 | 0.206 | 0.269 | 0.125 | 0.0838 | 0.34 | 0.329 | 0.303 | 0.284 | 0.446 | 0.379 | 0.289 | 0.112
NCI-H1915 | 0.392 | 0.367 | 0.365 | 0.361 | 0.548 | 0.524 | 0.464 | 0.394 | 0.524 | 0.542 | 0.5 | 0.471 | 0.911 | 0.923 | 0.874 | 0.905 | 0.257 | 0.277 | 0.28 | 0.225
NCI-H661 | 0.302 | 0.282 | 0.269 | 0.216 | 0.956 | 0.982 | 0.9 | 0.711 | 0.446 | 0.384 | 0.347 | 0.299 | 0.952 | 0.911 | 0.809 | 0.961 | 0.85 | 0.746 | 0.815 | 0.563
NCI-H2405 | 0.4 | 0.386 | 0.364 | 0.23 | 1.3 | 1.01 | 0.778 | 0.416 | 0.579 | 0.536 | 0.474 | 0.374 | 0.79 | 0.858 | 0.83 | 0.786 | 0.871 | 0.867 | 0.735 | 0.422
NCI-H2347 | 0.451 | 0.461 | 0.325 | 0.207 | 0.459 | 0.455 | 0.391 | 0.367 | 0.448 | 0.398 | 0.433 | 0.363 | 0.733 | 0.761 | 0.708 | 0.67 | 0.639 | 0.626 | 0.474 | 0.406
